Laboratory results taken from paper PMC6112376, “Comprehensive Analyses and Prioritization of Tox21 10K Chemicals Affecting Mitochondrial Function by in-Depth Mechanistic Studies” (Environmental Health Perspectives, 2018).
Structures can show the parent of a compound that is named as a salt. Where two headings read alike, the source gives them in different places.

Legend:
HepG2 cells [1] = settings: for IC50: read-out: MMP assays IC50 (µM) HepG2
rat primary hepatocytes [2] = assay: MMP assay in rat primary hepatocytes; settings: for IC50: read-out: MMP assays IC50 (µM) Rat Hepatocytes
rat primary hepatocytes [3] = test system: rat primary hepatocytes
HepG2 cells [4] = settings: cited from earlier work
[5] = read-out: MMP assays IC50 (µM) qHTS-HepG2
[6] = read-out: MMP assays IC50 (µM), qHTS-HepG2
[7] = HepG2 cells, single number from one experiment

Molecule | MMP assays IC50 (µM) HepG2 (HepG2 cells [1]) | MMP assays efficacy (%) HepG2 (HepG2 cells [1]) | IC50 (rat primary hepatocytes [2]; Rattus norvegicus, Hepatocyte) [µM] | MMP assays efficacy (%) Rat Hepatocytes (rat primary hepatocytes [3]) | MMP assays efficacy (%) qHTS-HepG2 (HepG2 cells [4]) | IC50 (HepG2 cells [4]; [5]) [µM] | MMP assays IC50 (µM) qHTS-HepG2 (HepG2 cells [4]) | IC50 (HepG2 cells [1]) [µM] | IC50 (rat primary hepatocytes [2]) [µM] | IC50 (HepG2 cells [4]; [6]) [µM] | MMP assays IC50 (µM) Rat Hepatocytes (rat primary hepatocytes [2]) | MMP assays efficacy (%) HepG2 (HepG2 cells [1]; [7]) [%] | IC50 (HepG2 cells [1]; [7]) [µM] | MMP assays IC50 (µM) Rat Hepatocytes (rat primary hepatocytes [2]; rat hepatocytes, mean ± SD of three experiments)
Nc1c(Br)cc(Br)c2c1C(=O)c1ccccc1C2=O [1-Amino-2,4-dibromoanthraquinone] | inactive | inactive | 27.4 ± 4.44 | -48±19% | -54±9% | 2.78 ± 3.75 |  |  |  |  |  |  |  | 
CCc1ccc(CCOc2ccc(CC3SC(=O)NC3=O)cc2)nc1 (stereo not shown) [Pioglitazone hydrochloride] | inactive | inactive | 8.9 ± 9.2 | -69+30% | inactive |  | inactive |  |  |  |  |  |  | 
O=C(N[C@@H]1N=C(c2ccccc2F)c2cccc3c2N(CC3)C1=O)c1cc2ccccc2[nH]1 |  | -81% |  | -61±16% | -64±4% | 8.41 |  | 13.8 | 17.3 |  |  |  |  | 
Cc1ccc(-n2nc(C(C)(C)C)cc2NC(=O)Nc2ccc(OCCN3CCOCC3)c3ccccc23)cc1 [Doramapimod;BIBR-796?] |  | -69% |  | -77±5% |  | 21.1 ± 5.52 |  | 21.8 | 24.1 ± 9.54 |  |  |  |  | 
CCCCC/C(=C\c1ccccc1)CO [alpha-Amylcinnamyl alcohol] |  | -69% |  | -85±44% | -87±10% | 38.1 ± 17.4 |  | 56.2 | 4.83 ± 4.07 |  |  |  |  | 
CNC(=O)c1cc(Oc2ccc(NC(=O)Nc3ccc(Cl)c(C(F)(F)F)c3)cc2)ccn1 |  | -92% |  | -72±24% |  |  |  | 1.23 | 2.25 ± 0.63 | 0.96 ± 0.09 |  |  |  | 
Clc1ccc(Nc2nnc(Cc3ccncc3)c3ccccc23)cc1 |  | -34% |  | -51±4% | -81±8% |  |  | 30.8 | 20.7 ± 14.7 | 25.6 ± 4.41 |  |  |  | 
Cc1c([N+](=O)[O-])c(C)c([N+](=O)[O-])c(C(C)(C)C)c1[N+](=O)[O-] |  | -24% |  | inactive | -82±11% | 20.1 ± 6.09 |  | 7.94 |  |  | inactive |  |  | 
Cc1cc(Nc2ccccc2C(=O)O)ccc1Cl |  | -100% |  | -92±11% | -99±8% | 12.8 ± 0.84 |  | 35.5 | 22.7 ± 16.2 |  |  |  |  | 
Cc1cccc(C)c1Nc1ncccc1C(=O)O [Metanixin] |  | -101% |  | -93±28% | -122±21% |  |  | 21.8 | 21 ± 1.37 | 26 ± 2.11 |  |  |  | 
Cc1oc(C)c(C(=O)Nc2ccccc2)c1C [Methfuroxam] |  | -48% |  | inactive | -69±12% |  |  | 17.8 |  | 25.8 ± 1.71 | inactive |  |  | 
COc1ccc(O)c(C(C)(C)C)c1 [Compound 2-tert-Butyl-4-methoxyphenol] |  |  |  | -53±11% | -92±3% | 25.3 ± 1.71 |  | 35.5 | 36.5 ± 19.2 |  |  |  |  | 
Nc1cccc(O)c1 [Compound 3-Aminophenol] | inactive | inactive |  | inactive | inactive |  | inactive |  |  |  | inactive |  |  | 
O=C1c2ccccc2C(=O)C1c1ccccc1 [Phenindione] | inactive | inactive |  | inactive | inactive |  | inactive |  |  |  | inactive |  |  | 
Dinocap |  | -100% |  | -93±7% | -94±10% | 0.34 ± 0.3 |  | 0.63 | 4.1 ± 2.16 |  |  |  |  | 
CC1(C)[C@@H](O)CC[C@]2(C)[C@H]3C(=O)C=C4[C@@H]5C[C@@](C)(C(=O)O)CC[C@]5(C)CC[C@@]4(C)[C@]3(C)CC[C@@H]12 [Glycyrrhetinic acid] | inactive | inactive | 15.6 ± 2.52 | -44±24% | -88±53% |  |  |  |  | 40.1 ± 9.34 |  |  |  | 
CC(=O)C1(C)CC2=C(CCCC2(C)C)CC1C (stereo not shown) |  |  |  | inactive | -50±18% | 27.3 ± 20.4 |  |  |  |  |  | -43 | 35.5 | inactive
C=C1CC[C@H](O)C/C1=C/C=C1\CCC[C@]2(C)[C@@H]([C@H](C)CCCC(C)C)CC[C@@H]12 [Vitamin D3] | inactive | inactive |  | inactive | inactive |  | inactive |  |  |  | inactive |  |  | 
Oc1ccc(C(c2ccc(O)cc2)C(Cl)(Cl)Cl)cc1 |  | -103% |  | -89±3% | -101±13% | 8.78 ± 1.43 |  | 10 | 33.2 ± 24.2 |  |  |  |  | 
CC1=Nc2ccc3ccccc3c2C1(C)C [1,1,2-Trimethyl-1H-benzo[e]indole] |  | -96% |  | -100±23% | -76±16% | 23.4 ± 4.03 |  | 10 | 34.9 ± 8.48 |  |  |  |  | 
Oc1cc(Cl)c(Cl)cc1Cl.[Na] [2,4,5-Trichlorophenol sodium salt] |  | -98% |  | -130±56% | -99±23% | 5.05 ± 2.09 |  | 10 | 27.3 ± 25.2 |  |  |  |  | 
O=C1[C@H](CC[C@H](O)c2ccc(F)cc2)[C@@H](c2ccc(O)cc2)N1c1ccc(F)cc1 |  | -112% |  | -52±2% | -81±11% | 25.6 ± 3.54 |  |  | 16.6 ± 20.1 |  |  |  |  | 
CCCCCCCCCCCCCC[n+]1ccc(C)cc1.[Cl-] [Miripirium chloride] |  | -121% |  | -106±27% | -86±9% |  |  |  | 19.5 ± 2.25 | 16.4 ± 4.01 |  |  |  | 
O=[N+]([O-])c1ccc2ncccc2c1 [Compound 6-Nitroquinoline] | inactive | inactive | 44.8 ± 16.3 | -29±7% | -51±5% | 30.7 ± 11.5 |  |  |  |  |  |  |  | 
O=C(Nc1cccc([N+](=O)[O-])c1)c1cc2ccccc2cc1O |  | -93% |  | -89±5% | -91±2% | 0.24 ± 0.09 |  | 0.28 | 1.6 ± 0.26 |  |  |  |  | 
